Measured values taken from ChEMBL document CHEMBL1121371, “Antihypertensive 5,6-diarylpyridazin-3-ones” (1980).

These compounds were tested on Rattus norvegicus (assay: Antihypertensive activity in spontaneously hypertensive rats, measured as average blood pressure at 100 mg/kg, p.o. before predose; No significant lowering of blood pressure).
Type: functional, organism-based
Parameters: dose 100 mg/kg

| Structure (SMILES) | BP |
| --- | --- |
| COc1ccc(-c2c(-c3ccccc3)c(-c3ccccc3)nn(CCO)c2=O)cc1OC | Not significant |
| CC(=O)c1c(-c2ccc(Cl)cc2)c(-c2ccc(Cl)cc2)nn(CC(C)O)c1=O (stereo unspecified) | Not significant |
| CCOC(=O)NCCn1nc(-c2ccc(Cl)cc2)c(-c2ccc(Cl)cc2)c(C(C)=O)c1=O | Not significant |
| Cc1ccc(-c2nnc(O)c(-c3ccccc3)c2-c2ccc(C)cc2)cc1 | Not significant |
| CC(=O)c1c(-c2ccc(Cl)cc2)c(-c2ccc(Cl)cc2)nn(CC(=O)O)c1=O | Not significant |
| CC(=O)c1c(O)nnc(-c2ccc(F)cc2)c1-c1ccc(F)cc1 | Not significant |
| CCOC(=O)CCCn1nc(-c2ccc(Cl)cc2)c(-c2ccc(Cl)cc2)c(C#N)c1=O | Not significant |
| COc1ccc(-c2nn(CCO)c(=O)c(C(C)=O)c2-c2ccc(OC)cc2)cc1 | Not significant |
| CC(=O)c1c(-c2ccc(Cl)cc2)c(-c2ccc(Cl)cc2)nn(CC[N+](C)(C)C)c1=O | Not significant |
| O=C(O)c1c(O)nnc(-c2ccc(Cl)cc2)c1-c1ccc(Cl)cc1 | Not significant |
| CC(=O)Nc1ccc(-c2c(-c3ccc(Cl)cc3)c(-c3ccc(Cl)cc3)nn(CCO)c2=O)cc1 | Not significant |
| O=c1c(-c2ccccc2)c(-c2ccc(Cl)cc2)c(-c2ccc(Cl)cc2)nn1CCO | Not significant |
| O=C(c1ccccc1)c1c(-c2ccccc2)c(-c2ccccc2)nn(CCO)c1=O | Not significant |
| Oc1nnc(-c2ccccc2)c(-c2ccccc2)c1-c1ccccc1 | Not significant |
| Cc1ccc(-c2nnc(O)c(C#N)c2-c2ccc(C)cc2)cc1 | Not significant |
| O=c1c(-c2ccc(Br)cc2)c(-c2ccccc2)c(-c2ccccc2)nn1CCO | Not significant |
| Oc1nnc(-c2ccccc2)c(-c2ccccc2)c1-c1ccc(Br)cc1 | Not significant |
| N#Cc1c(-c2ccc(F)cc2)c(-c2ccc(F)cc2)nn(CCO)c1=O | Not significant |
| CC(=O)c1c(-c2ccc(Cl)cc2)c(-c2ccc(Cl)cc2)nn(CC2CO2)c1=O (stereo unspecified) | Not significant |
| CC(=O)c1c(-c2ccc(OCc3ccccc3)cc2)c(-c2ccc(OCc3ccccc3)cc2)nn(CCO)c1=O | Not significant |
| Cc1ccc(-c2c(O)nnc(-c3ccccc3)c2-c2ccccc2)cc1 | Not significant |
| CCC(=O)c1c(-c2ccc(Cl)cc2)c(-c2ccc(Cl)cc2)nn(CCO)c1=O | Not significant |

| Structure (SMILES) | BP |
| --- | --- |
| COc1ccccc1-c1c(-c2ccccc2)c(-c2ccccc2)nn(CCO)c1=O | Not significant |
| N#Cc1c(O)nnc(-c2ccccc2Cl)c1-c1ccccc1Cl | Not significant |
| CC(O)c1c(-c2ccccc2)c(-c2ccccc2)nn(CCO)c1=O (stereo unspecified) | Not significant |
| COc1ccc(-c2nn(CCO)c(=O)c(C#N)c2-c2ccc(OC)cc2)cc1 | Not significant |
| O=C(O)c1c(-c2ccc(Cl)cc2)c(-c2ccc(Cl)cc2)nn(CCO)c1=O | Not significant |
| COc1ccc(-c2c(-c3ccccc3)c(-c3ccccc3)nn(CCO)c2=O)cc1 | Not significant |
| CCCC(=O)c1c(-c2ccc(Cl)cc2)c(-c2ccc(Cl)cc2)nn(C(C)CO)c1=O (stereo unspecified) | Not significant |
| O=c1c(-c2ccc3ccccc3c2)c(-c2ccccc2)c(-c2ccccc2)nn1CCO | Not significant |
| COc1cc(-c2c(O)nnc(-c3ccc(Cl)cc3)c2-c2ccc(Cl)cc2)cc(OC)c1OC | Not significant |
| N#Cc1c(O)nnc(-c2ccc(Br)cc2)c1-c1ccc(Br)cc1 | Not significant |
| CCOC(=O)c1c(-c2ccc(Cl)cc2)c(-c2ccc(Cl)cc2)nn(CCO)c1=O | Not significant |
| CCOC(=O)CCCn1nc(-c2ccccc2)c(-c2ccccc2)c(C(C)=O)c1=O | Not significant |
| CC(=O)c1c(-c2ccc(O)cc2)c(-c2ccc(O)cc2)nn(CC[n+]2ccccc2)c1=O | Not significant |
| N#Cc1c(-c2ccc(Cl)c(Cl)c2)c(-c2ccc(Cl)c(Cl)c2)nn(CCO)c1=O | Not significant |
| Oc1nnc(-c2ccccc2)c(-c2ccccc2)c1-c1ccc(Cl)cc1 | Not significant |
| CC(=O)c1c(O)nnc(-c2ccccc2)c1-c1ccccc1 | Not significant |
| COc1ccc(-c2c(O)nnc(-c3ccccc3)c2-c2ccccc2)cc1 | Not significant |
| Cc1ccc(-c2nn(CCO)c(=O)c(-c3ccccc3)c2-c2ccc(C)cc2)cc1 | Not significant |
| Oc1nnc(-c2ccccc2)c(-c2ccccc2)c1-c1cccc(Cl)c1 | Not significant |
| CCn1nc(-c2ccc(Cl)cc2)c(-c2ccc(Cl)cc2)c(C(C)=O)c1=O | Not significant |
| COC(=O)Cn1nc(-c2ccc(Cl)cc2)c(-c2ccc(Cl)cc2)c(C#N)c1=O | Not significant |
| COc1cccc(-c2c(-c3ccccc3)c(-c3ccccc3)nn(CCO)c2=O)c1 | Not significant |

| Structure (SMILES) | BP |
| --- | --- |
| O=c1c(-c2cccc(Cl)c2)c(-c2ccccc2)c(-c2ccccc2)nn1CCO | Not significant |
| Cn1nc(-c2ccccc2)c(-c2ccccc2)c(C#N)c1=O | Not significant |
| CC(=O)c1c(-c2ccc(Cl)cc2)c(-c2ccc(Cl)cc2)nn(CCCCCO)c1=O | Not significant |
| CCCC(=O)c1c(-c2ccc(Cl)cc2)c(-c2ccc(Cl)cc2)nn(CCO)c1=O | Not significant |
| CC(=O)c1c(-c2ccc(Cl)cc2)c(-c2ccc(Cl)cc2)nn(CCCN(C)C)c1=O | Not significant |
| COc1ccc(OC)c(-c2c(O)nnc(-c3ccccc3)c2-c2ccccc2)c1 | Not significant |
| O=S(=O)(c1ccccc1)c1c(O)nnc(-c2ccccc2)c1-c1ccccc1 | Not significant |
| CC(C)C(=O)c1c(-c2ccc(Cl)cc2)c(-c2ccc(Cl)cc2)nn(CCO)c1=O | Not significant |
| CC(=O)c1c(-c2ccc(Cl)cc2)c(-c2ccc(Cl)cc2)nn(CC(N)=O)c1=O | Not significant |
| CC(=O)c1c(-c2ccc(Cl)cc2)c(-c2ccc(Cl)cc2)nn(CCCl)c1=O | Not significant |
| CC(=O)c1c(-c2ccc(Cl)cc2)c(-c2ccc(Cl)cc2)nn(CC(O)CCl)c1=O (stereo unspecified) | Not significant |
| COc1ccc(OC)c(-c2c(-c3ccccc3)c(-c3ccccc3)nn(CCO)c2=O)c1 | Not significant |
| C/C(=N\N)c1c(O)nnc(-c2ccccc2)c1-c1ccccc1 | Not significant |
| CC(=O)Cn1nc(-c2ccc(Cl)cc2)c(-c2ccc(Cl)cc2)c(C#N)c1=O | Not significant |
| N#Cc1c(O)nnc(-c2ccc(Cl)c(Cl)c2)c1-c1ccc(Cl)c(Cl)c1 | Not significant |
| CC(=O)c1c(-c2ccc(O)cc2)c(-c2ccc(O)cc2)nn(CCO)c1=O | Not significant |
| CC(=O)c1c(O)nnc(-c2ccc(Cl)cc2)c1-c1ccc(Cl)cc1 | Not significant |
| COC(=O)Cn1nc(-c2ccc(Cl)cc2)c(-c2ccc(Cl)cc2)c(C(C)=O)c1=O | Not significant |
| C=Cn1nc(-c2ccc(Cl)cc2)c(-c2ccc(Cl)cc2)c(C(C)=O)c1=O | Not significant |
| CC(=O)c1c(-c2ccccc2)c(-c2ccccc2)nn(C)c1=O | Not significant |
| CCOC(=O)Cn1nc(-c2ccc(OC)cc2)c(-c2ccc(OC)cc2)c(C(C)=O)c1=O | Not significant |
| O=C(O)CCCn1nc(-c2ccccc2)c(-c2ccccc2)c(-c2ccccc2)c1=O | Not significant |
